Measured values: patent US20240374763A1, “DIAGNOSIS AND MONITORING USING EXTRADOMAIN-B FIBRONECTIN TARGETED PROBES” (Case Western Reserve University, priority 2020, published 2024)
No end group written: not given here.

Columns and labels:
Format in all cases: in vivo, mice
[1] = system: DLD-1 tumors; experiment: MRMI of EDB-FN with MT218, DLD-1 xenografts; conditions: 40 μmol/kg MT218, 25 min post-injection
Description: (§1) Nude athymic mice (6-week-old nu/nu females) were purchased from The Jackson Laboratory (Bar Harbor, […]) and housed in the Animal Facility at CWRU. All the animal experiments were performed according to the protocol approved by the IACUC of CWRU. For assessment of drug resistance, 2 drug-resistant and 2 non-drug-resistant models were set up. About 3-4×10^6 DLD-1, RKO, DLD1-DR, and RKO-DR cells suspended in Matrigel-PBS mixture (1:1) were subcutaneously injected in the left flanks of nude mice (100 μL per mouse, 5 mice per group×4 models=20 mice). After 9 days when the tumors reached 100-200 mm3, MRMI was performed on the 4 xenograft models with 40 μmol/kg dose of MT218. The animals were then euthanized, and the tumors were harvested for post-mortem histology and IHC.
MT218 was synthesized as previously described. Ayat, N. R., et al., ACS Med Chem Lett, 2018. 9(7): p. 730-735. Briefly, click reaction between alkynyl-ZD2 and N3-Gd(HP-DO3A) was performed in the presence of CuSO4 and ascorbate at room temperature, followed by FLASH chromatography purification and validation of MT218 by MALDI-TOF mass spectrometry (m.w. 1443). […] Contrast-to-noise ratios (CNRs) were calculated as (mean tumor intensity—mean muscle intensity)/standard deviation of noise. […]

[2] = system: DLD1-DR tumors; experiment: MRMI of EDB-FN with MT218, DLD1-DR xenografts
Description: as §1
MT218 was synthesized as previously described. Ayat, N. R., et al., ACS Med Chem Lett, 2018. 9(7): p. 730-735. Briefly, click reaction between alkynyl-ZD2 and N3-Gd(HP-DO3A) was performed in the presence of CuSO4 and ascorbate at room temperature, followed by FLASH chromatography purification and validation of MT218 by MALDI-TOF mass spectrometry (m.w. 1443). For assessment of drug resistance and therapeutic monitoring, MRMI was performed in a 3T MRS 3000 scanner (MR Solutions, Surrey, UK) with a mouse short quad coil. The mice were anesthetized with isofluorane and tail vein catheter was setup. T1-weighted MR images were obtained before (pre-contrast) and 25 min after injection (post-contrast) of 40 μmol/kg dose of MT218 [ZD2-N3—Gd(HP-DO3A)]. The following two sequences were used with respiratory gating: axial fast spin echo (FSE) (TR=305 ms, TE=11 ms, FA=90°, FOV=40 mm×40 mm, slice thickness=1 mm, slice number=15, Nav=2, matrix=256×256) and coronal FSE (TR=305 ms, TE=11 ms, FA=90°, FOV=90 mm×90 mm, slice thickness=1 mm, slice number=20, Nav=1, matrix=248×512). […] Contrast-to-noise ratios (CNRs) were calculated as (mean tumor intensity—mean muscle intensity)/standard deviation of noise. […]

[3] = system: BxPC3-GFP-Luc intrapancreatic tumors; experiment: MRMI of BxPC3-GFP-Luc intrapancreatic tumors
Description: For flank xenograft models, 4×10^6 Capan-1 cells suspended in 100 μL of a 6 mg/mL Matrigel (Corning, Corning, NY) solution was injected subcutaneously into the flank of eight-week-old female nu/nu mice. The tumor bearing mice were imaged after tumor volumes exceeded 300 mm^3. For orthotopic intrapancreatic models, the pancreas of four-week-old female nu/nu mice were surgically exposed and 1×10^6 BxPC3-GFP-Luc or PANC-1-GFP-Luc cells suspended in 100 μL of an Matrigel solution (6 mg/mL) was injected into the pancreatic tissue. Prior to imaging, growth of tumor was verified by bioluminescence imaging with intraperitoneal injection of d-luciferin on IVIS Spectrum system (Perkin Elmer, Waltham, MA).
Mice bearing intrapancreatic tumors were anesthetized and a tail vein catheter was inserted. Image acquisition was performed on a MR Solutions 3T MRS 3000 scanner with a mouse radiofrequency coil. Axial images were obtained using a Fast Spin Echo (FSE) MRI sequence (305 ms TR, 11 ms TE, 90° F.A, 4 cm×4 cm FOV, 1 mm slice thickness, 10 slices, echo train length=4, echo spacing=11 ms, 4 averages, 256×256 matrix, […] cm/pixel resolution) with respiratory gating. Images were acquired before contrast and at different time points after contrast injection at a dose of 0.1 mmol/kg (100 μL). For competitive binding experiments, a 5:1 molar ratio of free ZD2 peptide to MT218 was injected in mice bearing intrapancreatic BxPC3 tumor xenografts (n=3) at a dose of 0.1 mmol MT218/kg (100 μL). Images obtained on the MR Solutions 3T scanner were normalized using the Surscalereader.exe (MR Solutions, Guildford, UK) program supplied.
Image files were exported and analyzed in Horus software. ROIs were drawn in the tumor, liver, kidney, and muscle. Muscle ROIs were taken from muscle, with other structures (liver, kidney, tumor) identified after comparison with published images and comparison with anatomical landmarks or bioluminescent imaging. Size of ROIs drawn for image analysis are summarized in Supplemental Table S1. The contrast-to-noise ratio of the tumor (CNR) was calculated using the following equation, where σ_noise is the standard deviation of intensities from an ROI drawn outside of the mouse body:
Image contrast was reported as fold enhancement of contrast to noise ratio of postcontrast images over precontrast images using Fold Enhancement=CNRpost/CNRpre. Statistical analysis of CNR was performed in Minitab Express (Minitab Inc, State College, PA). One-way ANOVA with Fisher Individual Tests for Differences of Means post-hoc testing was performed to determine statistical significance between greater than two means (p<0.05). Student's T test was used to determine statistical significance between two means (p<0.05).

[4] = system: PC3 tumors; experiment: MRMI with MT218, PC3 xenografts; conditions: 0.04 mmol Gd/kg
Description: Xenograft models were established by subcutaneous flank injections in athymic nu/nu mice for the 4 prostate cancer cells and tested with MRMI using 0.04 mmol Gd/kg of MT218.

[5] = DLD1-DR over DLD-1 tumors, 40 μmol/kg MT218

Substance: ZD2-N3-Gd(HP-DO3A) (TVRTSAD; also: conjugated to Gd(HP-DO3A) by click reaction of alkynyl-ZD2 with N3-Gd(HP-DO3A), residue of attachment not given here, Gd complex) [MT218, EDB-FN-targeted MRI contrast agent; ZD2 peptide conjugated to the clinical macrocyclic agent Gd(HP-DO3A)]
- increase in CNRs over the pre-contrast [1]: 1.53 fold
- higher CNRs over the non-resistant tumors [2, 5]: 2.2 fold
- increase in CNR over the non-resistant tumors [2, 5]: 120%
- higher CNRs over pre-contrast ([2]; DLD1-DR tumors, 40 μmol/kg MT218, 25 min post-injection): 3.3 fold
- tumor CNR increase ([3]; 0.1 mmol/kg, 10 min post-injection): 5.3 fold
- CNR increase with co-injection of excess free ZD2 peptide ([3]; 5:1 molar ratio of free ZD2 peptide to MT218, 0.1 mmol MT218/kg): approximately 2.5 fold
- CNR compared to the clinical agent Gd(HP-DO3A) ([3]; BxPC3-GFP-Luc): 212 % CNR of control
- CNR increase with MT218 without the free peptide ([3]; competitive binding experiment, 0.1 mmol/kg): ca. 4.5 fold
- CNR of PC3 tumors relative to PC3-DR tumors [4]: 3.3 fold
- CNR over the pre-contrast ([4]; PC3 tumors, 20 min post-injection): 5 fold
